Results published in PMC8471306, “Chemical Changes of Hydroperoxy-, Epoxy-, Keto- and Hydroxy-Model Lipids under Simulated Gastric Conditions” (Foods, 2021).
Several values for one entry are separate records, joined by “and”; a condition that tells them apart may be missing. Equal entries are not always repeated. Entries after “also recorded” stand apart in the source; their conditions may differ. Blank lines part the entries; values can stand above or below the molecule they belong to.

How the values were obtained:
[1] = In vitro simulated gastric digestion of model lipid emulsions in SGF, quantitation by GC-FID; type: in vitro ADME
Description: Emulsions of model lipid compounds were prepared in a simulated gastric fluid (SGF) formulated as described in the United States Pharmacopeia. SGF contained 3.2% w/v pepsin in 0.03 M NaCl and 0.1 M HCl (pH 1.2). Different sample solutions of model lipid compounds in SGF were prepared and methyl C21:0 was added as an internal standard (IS) for quantitative purposes. Homogenization was performed in an Omnimixer (Sorvall, Newton, PA, USA) at 10,000 rpm for 5 min at 1-min intervals, as described elsewhere. […] Samples of 1, 2, 3 and 4 mL (~16 μmol mL^−1 of each compound) were used. • - Two methyl 9,10-epoxysteatate emulsions, i.e., 5 and 15 mg mL^−1, both with 10 mg mL^−1 of the IS, in SGF. Samples of 1, 2, 3 and 4 mL (16 and 46 μmol mL^−1) were used. • - Three methyl linoleate hydroperoxides emulsions, i.e., 5, 7.5 and 10 mg mL^−1, with 1, 1.5 and 2 mg mL^−1 of the IS, respectively. Additional methyl hydroperoxides emulsions at the same concentrations were prepared adjusting the pH to 3.0 and 6.6 with 1 M NaHCO3. Samples of 4 mL (15.3, 23.0 and 30.6 μmol mL^−1) were used.
Gastric digestion was simulated using a classical in vitro model. Emulsions of lipid model compounds prepared as described in Section 2.3. were used for digestion assays immediately after preparation. Triplicate emulsions were incubated in a shaking water bath for 3 h at 37 °C/100 rpm.
Lipids were thoroughly extracted with 1:1 hexane:diethyl ether after vigorous shaking in a vortex and centrifugation at 2000 rpm. Hexane and diethyl ether have been previously used for lipid extraction of oil-in-water emulsions. The extraction procedure was repeated three times and the organic extracts were pooled and washed with distilled water. After filtration through anhydrous sodium sulfate, the solvent was evaporated in a rotatory evaporator under reduced pressure at room temperature and the extracted lipids were dried using a stream of nitrogen.
Initial and digested samples were analyzed by gas-liquid chromatography using an HP 6890 Series chromatograph (Hewlett-Packard, Avondale, PA, USA) equipped with a split-splitless injector operating in the split mode with a 40:1 split ratio at 250 °C, a J&W DB-Wax fused-silica capillary column, 60 m × 0.25 mm I.D., film thickness 0.25 μm (J&W Scientific, Folsom, CA, USA) and a flame ionization detector that was used at 250 °C. The analyses were run using hydrogen as carrier gas at 1 mL min^−1 and under isothermal conditions using 230 °C for 25 min. Injections were carried out automatically using a 6890 Series autosampler (Agilent Technologies, Karlsruhe, Germany). A volume of 1 μL of sample dissolved in diethyl ether (~5 mg mL^−1) was analyzed.

[2] = rat, in vivo; cited from earlier work
[3] = equimolar mixture, 16 μmol mL^−1 each, sample volume 1 mL, SGF pH 1.2, 3 h 37 °C
[4] = equimolar mixture, 16 μmol mL^−1 each, sample volume 2 mL, SGF pH 1.2, 3 h 37 °C
[5] = equimolar mixture, 16 μmol mL^−1 each, sample volume 3 mL, SGF pH 1.2, 3 h 37 °C
[6] = equimolar mixture, 16 μmol mL^−1 each, sample volume 4 mL, SGF pH 1.2, 3 h 37 °C
[7] = tested alone, initial 15.79 μmol mL^−1, sample volume 1 mL, SGF pH 1.2
[8] = tested alone, initial 15.79 μmol mL^−1, sample volume 2 mL, SGF pH 1.2
[9] = tested alone, initial 15.79 μmol mL^−1, sample volume 3 mL, SGF pH 1.2
[10] = tested alone, initial 15.79 μmol mL^−1, sample volume 4 mL, SGF pH 1.2
[11] = tested alone, initial 46.03 μmol mL^−1, sample volume 1 mL, SGF pH 1.2
[12] = tested alone, initial 46.03 μmol mL^−1, sample volume 2 mL, SGF pH 1.2
[13] = tested alone, initial 46.03 μmol mL^−1, sample volume 3 mL, SGF pH 1.2
[14] = tested alone, initial 46.03 μmol mL^−1, sample volume 4 mL, SGF pH 1.2

Losses after in vitro gastric digestion, range over all samples ([1]; all concentrations and sample volumes tested, SGF pH 1.2): 17.8–58.8% | Final Concentration [1, 3]: 7.52 ± 0.73 a μmol mL^−1 | Loss % after Digestion [1, 3]: 52.7 ± 4.6 B % | Final Concentration [1, 4]: 7.79 ± 0.65 ab μmol mL^−1 | Loss % after Digestion [1, 4]: 51.3 ± 4.0 AB % | Final Concentration [1, 5]: 8.89 ± 0.43 b μmol mL^−1 | Loss % after Digestion [1, 5]: 44.4 ± 2.7 A % | Final Concentration [1, 6]: 9.55 ± 0.40 b μmol mL^−1 | Loss % after Digestion [1, 6]: 40.3 ± 2.5 A % | Final [9,10-Epoxystearate] [1, 7]: 6.50 ± 1.07 a μmol mL^−1 | Loss % after Digestion [1, 7]: 58.8 ± 6.8 D % | Final [9,10-Epoxystearate] [1, 8]: 7.20 ± 0.80 ab μmol mL^−1 | Loss % after Digestion [1, 8]: 54.4 ± 5.0 CD % | Final [9,10-Epoxystearate] [1, 9]: 8.00 ± 0.48 ab μmol mL^−1 | Loss % after Digestion [1, 9]: 49.3 ± 3.0 CD % | Final [9,10-Epoxystearate] [1, 10]: 8.97 ± 0.60 b μmol mL^−1 | Loss % after Digestion [1, 10]: 43.2 ± 3.8 BC % | Final [9,10-Epoxystearate] [1, 11]: 26.16 ± 2.24 a μmol mL^−1 | Loss % after Digestion [1, 11]: 43.2% and 43.2 ± 4.9 BC % | Final [9,10-Epoxystearate] [1, 12]: 30.53 ± 1.48 a μmol mL^−1 | Loss % after Digestion [1, 12]: 33.7 ± 3.2 B % | Final [9,10-Epoxystearate] [1, 13]: 35.06 ± 0.81 b μmol mL^−1 | Loss % after Digestion [1, 13]: 23.8 ± 1.8 A % | Final [9,10-Epoxystearate] [1, 14]: 37.82 ± 1.96 b μmol mL^−1 | Loss % after Digestion [1, 14]: 17.8% and 17.8 ± 4.3 A %
Molecule: CCCCCCCCC1OC1CCCCCCCC(=O)OC (stereo not drawn) [methyl 9,10-epoxystearate, Methyl trans-9,10-epoxystearate]

Final Concentration [1, 3]: 15.92 ± 0.40 c μmol mL^−1 | Final Concentration [1, 4]: 15.45 ± 1.03 c μmol mL^−1 | Final Concentration [1, 5]: 16.13 ± 0.39 c μmol mL^−1 | Final Concentration [1, 6]: 15.51 ± 1.13 c μmol mL^−1
Molecule: CCCCCCC(O)CCCCCCCCCCC(=O)OC (centres unmarked) [methyl 12-hydroxystearate]

Final Concentration [1, 3]: 16.11 ± 0.21 c μmol mL^−1 | Final Concentration [1, 4]: 15.80 ± 0.37 c μmol mL^−1 | Final Concentration [1, 5]: 15.88 ± 0.73 c μmol mL^−1 | Final Concentration [1, 6]: 16.15 ± 0.58 c μmol mL^−1
Molecule: CCCCCCC(=O)CCCCCCCCCCC(=O)OC [methyl 12-oxostearate]
Change after simulated gastric digestion (in words) ([1]; equimolar mixture, 16 μmol mL^−1 each, 1-4 mL, SGF pH 1.2): remained unaltered; also recorded: remained at the starting levels

Molecule: linoleic acid hydroperoxides
Share decomposed to a variety of compounds in the stomach [2]: about 70%
